# Measured values as given in patent US9765092B2, “Tricyclic piperidine compounds” (ACTELION PHARMACEUTICALS LTD, priority 2013, dated 2017).
# Biological target: human TPH1 (Homo sapiens (Human), UniProt P17752)
# Assay: Biochemical in vitro assay using fluorescence readout (TPH1 inhibition)
# Conditions: human TPH1, fluorescence readout
# Chain of human TPH1 (P17752 whole entry): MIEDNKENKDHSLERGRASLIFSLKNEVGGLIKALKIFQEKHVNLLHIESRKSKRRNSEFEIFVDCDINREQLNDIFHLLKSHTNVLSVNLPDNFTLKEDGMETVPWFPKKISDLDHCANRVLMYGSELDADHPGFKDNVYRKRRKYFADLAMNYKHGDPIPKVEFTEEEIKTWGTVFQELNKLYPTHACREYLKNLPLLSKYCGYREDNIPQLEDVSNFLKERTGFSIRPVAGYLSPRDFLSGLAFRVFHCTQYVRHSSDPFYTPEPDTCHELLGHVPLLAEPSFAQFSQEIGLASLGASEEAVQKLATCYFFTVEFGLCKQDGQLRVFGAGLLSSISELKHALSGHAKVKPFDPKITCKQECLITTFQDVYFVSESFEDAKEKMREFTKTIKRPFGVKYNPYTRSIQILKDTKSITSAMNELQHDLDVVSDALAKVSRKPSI
row,SMILES,IC50 [nM]
1,"Cc1cc(Cl)ccc1OCC(=O)N1CCc2nc3sccn3c2C1c1nc2ccccc2s1 (centres unmarked) [Example 6.12.4, 1-(5-(benzo[d]thiazol-2-yl)-7,8-dihydrothiazolo-[2′,3′:2,3]imidazo[4,5-c]pyridin-6(5H)-yl)-2-(4-chloro-2-methylphenoxy)ethanone]",36
2,"O=C(COc1cccc(C(F)(F)F)c1Cl)N1CCc2nc3sccn3c2C1c1nc2ccccc2s1 (centres unmarked) [Example 6.12.5, 1-(5-(benzo[d]thiazol-2-yl)-7,8-dihydrothiazolo-[2′,3′:2,3]imidazo[4,5-c]pyridin-6(5H)-yl)-2-(2-chloro-3-(trifluoromethyl)phenoxy)ethanone]",28
3,"O=C(COc1cccnc1Cl)N1CCc2nc3sccn3c2C1c1nc2ccccc2s1 (centres unmarked) [Example 6.12.6, 1-(5-(benzo[d]thiazol-2-yl)-7,8-dihydrothiazolo-[2′,3′:2,3]imidazo[4,5-c]pyridin-6(5H)-yl)-2-((2-chloropyridin-3-yl)oxy)ethanone]",101
4,"Cn1nc(OCC(=O)N2CCc3nc4sccn4c3C2c2nc3ccccc3s2)c(Cl)c1C(F)(F)F (centres unmarked) [Example 6.12.7, 1-(5-(benzo[d]thiazol-2-yl)-7,8-dihydrothiazolo-[2′,3′:2,3]imidazo[4,5-c]pyridin-6(5H)-yl)-2-((4-chloro-1-methyl-5-(trifluoromethyl)-1H-pyrazol-3-yl)-oxy)ethanone]",62
5,"O=C(COc1ccc(CN2CCOCC2)nc1Cl)N1CCc2nc3sccn3c2C1c1nc2ccccc2s1 (centres unmarked) [Example 6.12.8, 1-(5-(benzo[d]thiazol-2-yl)-7,8-dihydrothiazolo-[2′,3′:2,3]imidazo[4,5-c]pyridin-6(5H)-yl)-2-((2-chloro-6-(morpholinomethyl)pyridin-3-yl)oxy)ethanone]",43
6,"O=C(COc1ccc2ccncc2c1)N1CCc2nc3sccn3c2C1c1nc2ccccc2s1 (centres unmarked) [Example 6.12.9, 1-(5-(benzo[d]thiazol-2-yl)-7,8-dihydrothiazolo-[2′,3′:2,3]imidazo[4,5-c]pyridin-6(5H)-yl)-2-(isoquinolin-7-yloxy)ethanone]",12
7,"O=C(COc1cccc(C(F)(F)F)c1Cl)N1CCc2nc3sccn3c2C1c1cnn(-c2ccccc2)c1 (centres unmarked) [Example 6.13.1, 2-(2-chloro-3-(trifluoromethyl)phenoxy)-1-(5-(1-phenyl-1H-pyrazol-4-yl)-7,8-dihydrothiazolo[2′,3′:2,3]-imidazo[4,5-c]pyridin-6(5H)-yl)ethanone]",75
8,"O=C(COc1ccc(Cl)cc1Cl)N1CCc2nc3sccn3c2C1c1cnn(-c2ccccc2)c1 (centres unmarked) [Example 6.13.2, 2-(2,4-dichlorophenoxy)-1-(5-(1-phenyl-1H-pyrazol-4-yl)-7,8-dihydrothiazolo[2′,3′:2,3]imidazo[4,5-c]pyridin-6(5H)-yl)ethanone]",50
9,"Cc1ccc(OCC(=O)N2CCc3nc4sccn4c3C2c2cnn(-c3ccccc3)c2)cc1 (centres unmarked) [Example 6.13.3, 1-(5-(1-phenyl-1H-pyrazol-4-yl)-7,8-dihydrothiazolo-[2′,3′:2,3]imidazo[4,5-c]pyridin-6(5H)-yl)-2-(p-tolyl-oxy)ethanone]",53
10,"Cc1ccccc1OCC(=O)N1CCc2nc3sccn3c2C1c1cnn(-c2ccccc2)c1 (centres unmarked) [Example 6.13.4, 1-(5-(1-phenyl-1H-pyrazol-4-yl)-7,8-dihydrothiazolo-[2′,3′:2,3]imidazo[4,5-c]pyridin-6(5H)-yl)-2-(o-tolyl-oxy)ethanone]",236
11,"O=C(COc1ccc(CN2CCOCC2)cc1Cl)N1CCc2nc3sccn3c2C1c1cnn(-c2ccccc2)c1 (centres unmarked) [Example 6.13.5, 2-(2-chloro-4-(morpholinomethyl)phenoxy)-1-(5-(1-phenyl-1H-pyrazol-4-yl)-7,8-dihydrothiazolo-[2′,3′:2,3]imidazo[4,5-c]pyridin-6(5H)-yl)ethanone]",7
12,"O=C(COc1ccc(CN2CCOCC2)nc1Cl)N1CCc2nc3sccn3c2C1c1cnn(-c2ccccc2)c1 (centres unmarked) [Example 6.13.6, 2-((2-chloro-6-(morpholinomethyl)pyridin-3-yl)oxy)-1-(5-(1-phenyl-1H-pyrazol-4-yl)-7,8-dihydrothiazolo-[2′,3′:2,3]imidazo[4,5-c]pyridin-6(5H)-yl)ethanone]",28
13,"Cc1cc(Cl)ccc1OCC(=O)N1CCc2nc3sccn3c2C1c1cnn(-c2ccccc2)c1 (centres unmarked) [Example 6.13.7, 2-(4-chloro-2-methylphenoxy)-1-(5-(1-phenyl-1H-pyrazol-4-yl)-7,8-dihydrothiazolo[2′,3′:2,3]imidazo[4,5-c]pyridin-6(5H)-yl)ethanone]",26
14,"O=C(COc1ccc(C(F)(F)F)cc1Cl)N1CCc2nc3sccn3c2C1c1cnn(-c2ccccc2)c1 (centres unmarked) [Example 6.13.8, 2-(2-chloro-4-(trifluoromethyl)phenoxy)-1-(5-(1-phenyl-1H-pyrazol-4-yl)-7,8-dihydrothiazolo[2′,3′:2,3]-imidazo[4,5-c]pyridin-6(5H)-yl)ethanone]",80
15,"CCc1ncccc1OCC(=O)N1CCc2nc3sccn3c2C1c1cnn(-c2ccccc2)c1 (centres unmarked) [Example 6.13.9, 2-((2-ethylpyridin-3-yl)oxy)-1-(5-(1-phenyl-1H-pyrazol-4-yl)-7,8-dihydrothiazolo[2′,3′:2,3]imidazo[4,5-c]pyridin-6(5H)-yl)ethanone]",123
16,"O=C(COc1ccc(Cl)cc1Cl)N1CCc2nc3sccn3c2C1c1cc2cccnc2s1 (centres unmarked) [Example 6.14.1, 2-(2,4-dichlorophenoxy)-1-(5-(thieno[2,3-b]pyridin-2-yl)-7,8-dihydrothiazolo[2′,3′:2,3]imidazo[4,5-c]pyridin-6(5H)-yl)ethanone]",25
17,"Cc1cc(Cl)ccc1OCC(=O)N1CCc2nc3sccn3c2C1c1cc2cccnc2s1 (centres unmarked) [Example 6.14.2, 2-(4-chloro-2-methylphenoxy)-1-(5-(thieno[2,3-b]-pyridin-2-yl)-7,8-dihydrothiazolo[2′,3′:2,3]imidazo[4,5-c]pyridin-6(5H)-yl)ethanone]",39
18,"O=C(COc1cccnc1Cl)N1CCc2nc3sccn3c2C1c1cc2cccnc2s1 (centres unmarked) [Example 6.14.3, 2-((2-chloropyridin-3-yl)oxy)-1-(5-(thieno[2,3-b]pyridin-2-yl)-7,8-dihydrothiazolo[2′,3′:2,3]imidazo[4,5-c]pyridin-6(5H)-yl)ethanone]",67
19,"O=C(COc1ccc(CN2CCOCC2)nc1Cl)N1CCc2nc3sccn3c2C1c1cc2cccnc2s1 (centres unmarked) [Example 6.14.4, 2-((2-chloro-6-(morpholinomethyl)pyridin-3-yl)oxy)-1-(5-(thieno[2,3-b]pyridin-2-yl)-7,8-dihydrothiazolo-[2′,3′:2,3]imidazo[4,5-c]pyridin-6(5H)-yl)ethanone]",38
20,"Cc1ccc(Cl)c(OCC(=O)N2CCc3nc4sccn4c3C2c2cc3cccnc3s2)c1 (centres unmarked) [Example 6.14.5, 2-(2-chloro-5-methylphenoxy)-1-(5-(thieno[2,3-b]-pyridin-2-yl)-7,8-dihydrothiazolo[2′,3′:2,3]imidazo[4,5-c]pyridin-6(5H)-yl)ethanone]",43
21,"CCc1nc(C)ccc1OCC(=O)N1CCc2nc3sccn3c2C1c1c(C)nn(C)c1C (centres unmarked) [Example 6.15.1, ((2-ethyl-6-methylpyridin-3-yl)oxy)-1-(5-(1,3,5-trimethyl-1H-pyrazol-4-yl)-7,8-dihydrothiazolo-[2′,3′:2,3]imidazo[4,5-c]pyridin-6(5H)-yl)ethanone]",149
22,"Cc1nn(C)c(C)c1C1c2c(nc3sccn23)CCN1C(=O)COc1ccc(C(F)(F)F)cc1Cl (centres unmarked) [Example 6.15.2, 2-(2-chloro-4-(trifluoromethyl)phenoxy)-1-(5-(1,3,5-trimethyl-1H-pyrazol-4-yl)-7,8-dihydrothiazolo-[2′,3′:2,3]imidazo[4,5-c]pyridin-6(5H)-yl)ethanone]",48
23,"Cc1cc(Cl)ccc1OCC(=O)N1CCc2nc3sccn3c2C1c1c(C)nn(C)c1C (centres unmarked) [Example 6.15.3, 2-(4-chloro-2-methylphenoxy)-1-(5-(1,3,5-trimethyl-1H-pyrazol-4-yl)-7,8-dihydrothiazolo[2′,3′:2,3]imidazo[4,5-c]pyridin-6(5H)-yl)ethanone]",20
24,"CCc1cc(Cl)ccc1OCC(=O)N1CCc2nc3sccn3c2C1c1c(C)nn(C)c1C (centres unmarked) [Example 6.15.4, 2-(4-chloro-2-ethylphenoxy)-1-(5-(1,3,5-trimethyl-1H-pyrazol-4-yl)-7,8-dihydrothiazolo[2′,3′:2,3]imidazo[4,5-c]pyridin-6(5H)-yl)ethanone]",102
25,"CCc1ncccc1OCC(=O)N1CCc2nc3sccn3c2C1c1ccc(C(F)F)cc1F (centres unmarked) [Example 6.16.1, 1-(5-(4-(difluoromethyl)-2-fluorophenyl)-7,8-dihydro-thiazolo[2′,3′:2,3]imidazo[4,5-c]pyridin-6(5H)-yl)-2-((2-ethylpyridin-3-yl)oxy)ethanone]",14
26,"CCc1nc(C)ccc1OCC(=O)N1CCc2nc3sccn3c2C1c1ccc(C(F)F)cc1F (centres unmarked) [Example 6.16.2, 1-(5-(4-(difluoromethyl)-2-fluorophenyl)-7,8-dihydro-thiazolo[2′,3′:2,3]imidazo[4,5-c]pyridin-6(5H)-yl)-2-((2-ethyl-6-methylpyridin-3-yl)oxy)ethanone]",8
27,"O=C(COc1cccnc1Cl)N1CCc2nc3sccn3c2C1c1ccc(C(F)F)cc1F (centres unmarked) [Example 6.16.3, 2-((2-chloropyridin-3-yl)oxy)-1-(5-(4-(difluoromethyl)-2-fluorophenyl)-7,8-dihydrothiazolo[2′,3′:2,3]imidazo[4,5-c]pyridin-6(5H)-yl)ethanone]",15
28,"CCc1nc(C)ccc1OCC(=O)N1CCc2nc3sccn3c2C1c1ccc(C(F)(F)F)nc1C (centres unmarked) [Example 6.17.1, 2-((2-ethyl-6-methylpyridin-3-yl)oxy)-1-(5-(2-methyl-6-(trifluoromethyl)pyridin-3-yl)-7,8-dihydrothiazolo-[2′,3′:2,3]imidazo[4,5-c]pyridin-6(5H)-yl)ethanone]",194
29,"CS(=O)(=O)Nc1ccc(OCC(=O)N2CCc3nc4sc(CF)nn4c3C2c2ccc(Cl)cc2F)c(Cl)n1 (centres unmarked) [Example 7.1.1, N-(6-chloro-5-(2-(5-(4-chloro-2-fluorophenyl)-2-(fluoromethyl)-7,8-dihydro-[1,3,4]thiadiazolo[2′,3′:2,3-]imidazo[4,5-c]pyridin-6(5H)-yl)-2-oxoethoxy)pyridin-2-yl)methanesulfonamide]",8
